Source: BigSolDB 2.1

Cc1ncc([N+](=O)[O-])n1CCO
solubility (mole fraction)
Details | in chloroform | in ethanol | in ethyl acetate | in isopropanol | in methanol | in n-butanol | in water
293.15 K | 0.00128 | 0.00433 | 0.00299 | 0.00396 | 0.00641 | 0.00533 | 0.000872
297.55 K | 0.0016 | 0.00596 | 0.00395 | 0.00462 | 0.0076 | 0.00576 | –
298.45 K | – | – | – | – | – | – | 0.00104
302.55 K | 0.00226 | 0.00641 | 0.00495 | 0.00559 | 0.00925 | 0.00692 | –
306.95 K | – | – | – | – | – | – | 0.00146
307.55 K | 0.00288 | 0.00763 | 0.00605 | 0.00615 | 0.0112 | 0.00914 | –
308.65 K | – | – | – | – | – | – | 0.00152
312.35 K | 0.0036 | 0.00978 | 0.00713 | 0.00794 | 0.0138 | 0.0111 | –
313.15 K | – | – | – | – | – | – | 0.00181
317.85 K | 0.00418 | 0.0121 | 0.00887 | 0.0102 | 0.017 | 0.0132 | –
318.05 K | – | – | – | – | – | – | 0.00216
322.35 K | – | 0.0145 | 0.0121 | 0.0125 | 0.0201 | 0.0163 | –
322.95 K | – | – | – | – | – | – | 0.00265
